Laboratory results as given in patent publication US12071469B2, “Peptide compounds for suppressing inflammation” (Duke University, priority 2011, dated 2024).

Tests used:
[1] = test system: mice with intracerebral hemorrhage; experiment: Rotorod vestibulomotor function after intracerebral hemorrhage (collagenase injection); type: in vivo, mouse; conditions: 0.05 mg/kg iv at 2 h and 6 h after intracerebral hemorrhage
Protocol: An experimental murine model for intracerebral hemorrhage was also provided. James, et al. (2009) Stroke, 40:632-39. Male mice (age 16-20 weeks) were anesthetized with 4.6% isoflurane in oxygen in an anesthesia induction box for 90 seconds. The trachea was intubated and the lungs mechanically ventilated with 1.6% isoflurane in a 70/30 mixture of nitrogen/oxygen. Body temperature was maintained at 37° C. using an underbody warming system. The animal's head was secured in a stereotactic frame, local anesthetic was injected, and the scalp incised. […]
An experimental procedure for measuring neurological deficits was developed. […] The average time to fall from the rotating cylinder in the latter three trials was recorded as baseline latency. […] Average latency to fall from the rod was recorded, and mice unable to grip the rod were scored with a latency of 0 seconds.
Groups of mice received either an ApoE mimetic peptide (SEQ ID NO:4; 0.05 mg/kg) or carrier (saline) by intravenous tail vein injection a 2 hours and again at 6 hours after intracerebral hemorrhage induced as described in Example 3. Each mouse was tested for vestibulomotor function by rotorod latency measured before and after induced intracerebral hemorrhage as described in Example 3.

[2] = VSRRR quantitation in mouse plasma by LC/SIM/MS after intravenous dosing; type: in vivo; conditions: IV single dose 0.8 mg/kg
Protocol: The amount of the ApoE mimetic peptide VSRRR (SEQ ID NO:4) in blood plasma and CNS was determined as follows:
VSRRR Quantitation in Mouse Plasma Using LC/Selected Ion Monitoring (SIM)/MS
48 μL aliquots of mouse plasma were measured into the wells of a 2 mL 96-well plate. 6 μL of a stable isotope labeled (SIL) form of the VSRRR peptide (“VSRRR[10]”; SEQ ID NO:4) (5 picomoles/μL in 50 mM ammonium bicarbonate, pH 8, buffer) was added. 6 μL of a synthetic form of the VSRRR peptide (“VSRRR”; SEQ ID NO:4) in 50 mM Ammonium bicarbonate was added for standards and quality controls (QCs) and an equivalent volume of 50 mM ammonium bicarbonate was added to all wells containing mouse PK samples. 1140 μL of 50 mM ammonium formate, pH 10, was added for a final volume of 1200 μL. Salts and proteins were removed using OASIS® HLB Solid Phase Extraction (SPE) protocol as follows: • 1. 500 μL methanol (MeOH) through each well×1. • 2. 500 μL 25% acetonitrile (ACN)/1% trifluoroacetic acid (TFA)×1 (as pre-elution). • 3. 500 μL MeOH×1 • 4. 500 μL 50 mM ammonium formate×2 • 5. 1 mL of each sample mixture was pipetted directly onto an OASIS® HLB plate (hydrophilic-lipophilic-balanced reversed-phase sorbent; Waters Corp.) into a corresponding well and slowly vacuumed through • 6. 500 μL 50 mM ammonium formate×1 • 7. 500 μL 10% ACN/50 mM ammonium formate×2 • 8. 500 μL 25% ACN/50 mM ammonium formate×1 • 9. Removed plate collecting washes/flowthrough, and put in collection plate • 10. Eluted with 100 μL 25% ACN/1% TFA×3, eluting with vacuum slowly. The final eluate should be approximately 300 μL.
The SPE eluate was dried using a vacuum centrifuge. The sample was reconstituted in 50 μL of buffer containing 1% acetonitrile (ACN), 0.1% trifluoroacetic acid (TFA), and 0.02% heptafluorobutyric acid (HFBA). Two microliters of reconstituted sample was analyzed by nanoscale capillary LC coupled to a high resolution, accurate mass tandem mass spectrometer. Specifically, the electrospray ionization source with NanoLockSpray™ (Waters Corp.) and nanoAcquity UPLC® system (Waters Corp.) were used with a nanoscale LC column (1.7 μm BEH130 C18 150 μm ID×100 mm long; Waters Corp.), 10-min gradient of 3% to 19% ACN with 0.1% formic acid (mobile phase A=0.1% formic acid/0.001% HFBA) with a total LC run time of 16.5 minutes, flow rate=1.8 μL/min and 35° C. column temperature. A SYNAPT™ G1 HDMS™ high resolution mass spectrometer (Waters Corp.) was used. Full Scan MS data was obtained over the mass region of 50-4000 Da using an Enhanced Duty Cycle scan function at 360 Da.
VSRRR and VSRRR[10] amounts were quantitated by measuring the area under the curve (AUC) of the Selected Ion Chromatograms of the doubly charged ions at high resolution (m/z 357.7 and 362.7). The final VSRRR quantitation amount was determined using the ratio of the AUCs (VSRRR/VSRRR[10]). The ratios from 5 animals were averaged per time point and calibration standards were used to generate a standard curve. Duplicate aliquots of QC samples were analyzed by LC/MS in triplicate to determine analytical reproducibility.
The lower level of quantitation (LLOQ) is indicated.

Substance: Ac-VSRRR-NH2 [VR-55, Ac-VSRRR-NH2]
- durability of effect on rotorod latency [1]: durable through the five-day testing period
- vestibulomotor performance (rotorod latency) compared to carrier ([1]; FIG. 5): improved vestibulomotor performance
- Ratio Light/Heavy across 5 animals ([2]; 1 min): 0.079
- amount of peptide in plasma ([2]; 1 min): 32.2 fmol/µL
- Ratio Light/Heavy across 5 animals ([2]; 3 min): 0.134
- amount of peptide in plasma ([2]; 3 min): 51.8 fmol/µL
- Ratio Light/Heavy across 5 animals ([2]; 5 min): 0.077
- amount of peptide in plasma ([2]; 5 min): 31.7 fmol/µL
- Ratio Light/Heavy across 5 animals ([2]; 10 min): 0.058
- amount of peptide in plasma ([2]; 10 min): 24.9 fmol/µL
- Ratio Light/Heavy across 5 animals ([2]; 15 min): 0.044
- amount of peptide in plasma ([2]; 15 min): 19.6 fmol/µL
- Ratio Light/Heavy across 5 animals ([2]; 30 min): 0.016
- amount of peptide in plasma ([2]; 30 min): 9.9 fmol/µL
- Ratio Light/Heavy across 5 animals ([2]; 60 min): 0.012
- amount of peptide in plasma ([2]; 60 min): 8.5 fmol/µL
